A short description of data set [1]: Antagonism towards d-amphetamine: amphetamine-induced hypermobility. It counts as in vivo, mice. Also noted: reference not given here. As to the method: (§1) This particular feature of the compound could be deduced from the influence the compound exerted on: (a) d-amphetamine toxicity to mice kept in group, and (b) response time of une avoidance re= flex.
Six groups of 4 mice each were treated with 5 mg/kg of d-am= phetamine sulfate by intraperitoneal administration. Six groups of 4 animals each received the same dose of d-amphetamine sulfate plus 25 mg/kg of PTT-01 intraperitoneally, 15 minutes after d-am= phetamine sulfate; six groups of 4 animals each received saline solution and were used as controls. Spontaneous mobility was ob= served in every animal according to the procedure described herein before. The number of times each animal crossed the light beam throughout the 10 minutes test was noted. As appears from Table 4, the treatment with PTT-01 aid not prevent d-amphetamine from stimulating spontaneous mobility.

Data set [2] in a line: Antagonism towards electroshock (maximal electroshock, MES). It is filed as in vivo. As to conditions: mouse; for Number of animals with Clonic convulsions / Number of animals with Tonic convulsions: treated animals in parentheses. As to the method:
Electroshock was produced in mice by applying ear electrodes. Stimulation parameters which could induce the maximal electroshok (MES) were adopted. This was obtained by applying rectangular input shocks for 0.6 seconds. Each input lasted […] and the input frequency was 25/sec. Phenobarbital sodium was used as control substance. […]
(Protection in the maximal electroshock model is a classic sign of anticonvulsant action.)

Data set [3] can be described thus: Enhancement of the hypnotic effect of sodium pentobarbital (loss of righting reflex). As to conditions: mouse. It is filed as in vivo. As to the method: 40 mg, kgof sodium pentobarbital was injected intraperitoneal ly into mice and note was taken of animals losing the righting re= flex and for how long. Other mice received a preliminary treat= ment with PTT-01 at a dosage of 25 and 50 mg/kg, intraperitoneally and thereafter sodium pentobarbital was given.

Data set [4] in a line: Sedation of laboratory animals. It counts as in vivo. As to conditions: dose of about 50 mg/kg. As to the method:
The compound was administered to laboratory animals at a dose of about 50 mg/kg. The animals were sedated.
A good yield of α-n-pentylcarbonyl-amino-γ-butyrolactone is ob= tained. The compound was administered to laboratory animals at a dose of about 50 mg/kg. The animals were sedated.

Data set [5] is described as follows: Avoidance reflex (response time in two-chamber conditioning cage). The following applies: four conditioned mice, controls 53.3±4.5 sec. It is filed as in vivo.
Description: as §1
A conditioning cage consisting of two chambers was used, with free access between the chambers. The floor of one compartment was electrified to make it possible to deliver a mild shook. Eice were conditioned by first giving a warning signal and then,af ter a short period of time the shock was applied. Mice learned to leave the electrified compartment after the warning bell soun= ded were then judged to be conditioned. The average period of ti me, in this experiment, for controls (4) within which they leave the compartment was 53.3±4.5 sec. Four conditioned mice were given PTT-01 intraperitoneally(25 mg/kg); time within which they left the compartment was 60.6 + 3.9 sec. Four conditioned mice treat= ed with 50 mg/kg of PTT-C1 left the compartment only after 77.5 ± 2.7 sec.

A short description of a further data set: Rotating bar test. The following applies: trained mice, group of five. It counts as in vivo. As to the method:
Mice were trained to remain on a rotating bar for at least 3 minutes. A group of five of the trained mice were given an intra peritoneal injection of 25 mg/kg of PTT-01 in a 1% suspension of tragacanth gum. Another group of five mice were given an intra= peritoneal injection of 50 mg/kg of PTT-01 in a 1% suspension of tragacanth gum. All control animals stayed on the bar for 3 mi= nutes.

Data set [6] in a line: Diuresis in water-loaded rats. It is filed as in vivo.
Data set [7] in a line: Excretion rate of intravenously injected bromosulphonphthalein in bile. It counts as in vivo. As to conditions: single 50 mg/kg oral dose. As for the experimental part:
(§2) The effect of a single 50 mg/kg oral dose of PTT-01 was deter mined on (a) diuresis in water-loaded rats, (b) choleresis, (c) ex cretion rate of intravenously injected bromosulphonphthalein in bi le, (d) arterial blood pressure.

Data set [8] in a line: Sleep in cats conditioned to sleep for 8 hours. It is filed as in vivo. As to conditions: 25 and 35 mg/kg.
Data set [9] is described as follows: Spontaneous mobility (interruptions of a light beam in 10 minutes). It is filed as in vivo. As to conditions: mice, controls fell to 71.4%. As for the experimental part: Several groups of 4 mice each were placed in an apparatus de signed to provide a measure of spontaneous mobility by counting the number of interruptions of a light beam for a period of 10 mi= nutes. After preliminary measurement of mobility, animals were injected with PTT-01 (25 and 50 mg/kg) intraperitoneally. Con= trols received saline solution. Then minutes thereafter the mea= surement of mobility was repeated. Five groups of mice were used as controls and 6 other groups were treated with varying doses of PTT-01.

A short description of data set [10]: Acute toxicity in animals. It is filed as in vivo, rats ( Wistar-Morini Strain). As to conditions: for LD50: aqueous 1% suspension of tragacanth gum. As to the method:
PTT-01 was administered to adult rats ( Wistar-Morini Strain) of both sexes after fasting overnight. It was administered in an aqueous 1% suspension of tragacanth gum orally by gastric probe or intraperitoneally.

A short description of data set [11]: Mortality from d-amphetamine in mice kept in group. It is filed as in vivo. The following applies: eight grouped mice, same amount (25 mg/kg) i.p. 10 minutes before 10 mg/kg d-amphetamine sulfate i.p.; all eight controls died. As for the experimental part: as §1
However, PTT-01 reduced mortality from d-amphetamine. The same amount of PTT-01 was injected intraperitoneally. Then, 10 minutes later, an intraperitoneal injection of 10 mg/kg of d-amphe tamine sulfate was administered. Eight animals were used in this test and kept in a 25 x 20 x 14 om cage in an air-conditioned room (20°C, 6C,- humidity). […]

Data set [12] is described as follows: Antagonism towards strychnine: protection from death caused by hypodermic injection. It counts as in vivo. The following applies: mouse, single oral 50 mg/kg dose, 1.2 mg/kg strichnine sulfate, groups of six. As for the experimental part:
(§3) This type of antagonism was evaluated in the mouse as follows: (1) protection from death caused by a hypodermic injection of strychnine; (2) evaluation of the LD50 of strychnine both in mice treated and untreated with PTT-01 and (3) influence on the time re quired to cause animals to die by slow intravenous perfusion of strychnine.
Groups of six mice were used. Results are given in Ta= ble 5.

Data set [13] in a line: Influence on the electromyogram, rabbit with cortical electrodes. It counts as in vivo. The following applies: electrodes implanted in cerebral cortex, 50 mg/kg intraperitoneal, similar to 30 mg/kg intravenous phenobarbital sodium. As to the method: The effect was similar to the effect caused by 30 mg/kg of intravenous phenobarbital sodium.
Data set [14] can be described thus: Subacute toxicity in animals. It is filed as in vivo. The following applies: 8 rats, 50 mg/kg daily for 6 consecutive days. As to the method:
Accor= dingly, 8 rats were given 50 mg/kg daily for 6 consecutive days.

A short description of another data set: Arterial blood pressure. It is filed as in vivo. The following applies: single 50 mg/kg oral dose. As for the experimental part:
as §2

A short description of data set [15]: Electrode recording in the unrestrained cat. It counts as in vivo. The following applies: permanent electrodes, 50 or 100 mg/kg.
A short description of data set [16]: Antagonism towards strychnine: time to death under slow intravenous infusion. It counts as in vivo. As to conditions: mice; for mean infusion time to cause death: infusion rate 0.25 ml/min. As to the method: as §3
(3) continuous intravenous infusion at constant rate (0.4 ml/min) of a strychnine sulfate solution (26.66 mg/l) was carried out by injection in a tail vein in mice until they died. One group of aninals received 50 mg/kg of PTT-01 as preliminary treatment 15 mi nutes before the beginning of the infusion. The mean infusion ti me to cause six controls to die was 134 ± 3.2 seconds (mean + SE). The mean infusion time required to obtain the same effect in animals pretreated with PTT-01 was 210 ± 6.1 seconds.
In another experiment the infusion rate of strychnine was low ered to 0.25 ml/min. Under this conditions, the mean infusion ti me was 246 ± 3.1 seconds in the case of controls (six animals) and 338 ± 24.3 seoondss in treated animals.
When the above mentioned infusion rate was maintained, while redu= cine the amount of PTT-01 to 25 mg/kg, the mean infusion time was 260 + 13.4 seconds in controls and 360 + 21.2 seconds in the treat ed animals.

A short description of a further data set: Choleresis. It is filed as in vivo. The following applies: single 50 mg/kg oral dose. As to the method: as §2
[17] abbreviates: 40 mg/kg i.p. 10 minutes before electroshock.
Setting [18] is: I 25 mg/kg + II 40 mg/kg intraperitoneally.
The mark [19] stands for this setting: I 50 mg/kg + II 40 mg/kg intraperitoneally.
Where [20] appears, read: 25 mg/kg i.p. 10 minutes before electroshock.

Take `C[C@H](N)Cc1ccccc1` [d-amphetamine, reference compound]: the “Mean number of crossings (± SE) in 10 minutes” value in [1] (mouse, in vivo) is on record as 657 ± 59.
In the case of `CCC1(c2ccccc2)C(=O)NC(=O)NC1=O` [Phenobarbital Na, Phenobarbital sodium, reference compound], in data set [2] (setting [17]), the “Number of animals Dead” value is on record as 0/8, the “Number of animals with Clonic convulsions” value was 8 (8) and the “Number of animals with Tonic convulsions” value is listed as 0 (8).
With `CCCC(C)C1(CC)C(=O)NC(=O)NC1=O` (stereo not shown) [II, sodium pentobarbital, reference compound], in data set [3] (II 40 mg/kg intraperitoneally alone), the “Animals under hypnosis/ treated” value is on record as 3/4. In data set [3] (II 40 mg/kg intraperitoneally alone, zero assigned to animals not losing the righting reflex), the “Duration of hypnosis in minutes (m± SE)” value was 3.25 ± 3.4 min.
Turning to `CCCCCC(=O)NC1CCOC1=O` (stereo not drawn) [Example 3, α-n-pentylcarbonyl-amino-γ-butyrolactone], the sedation entry in data set [4] is recorded as “sedated”.
The same measure, in the same setting: the result for `CC(C)CC(=O)NC1CCOC1=O` (stereo not drawn) [Example 2, α-isobutylcarbonyl-amino-γ-butyrolactone] reads “sedated”.
“α-n-butylcarbonyl-amino-γ-butyrolactone [PTT-01]”: the “Animals under hypnosis/ treated” value in data set [3] (setting [18]) and in data set [3] (setting [19]) was 4/4 throughout. Moreover, the “Duration of hypnosis in minutes (m± SE)” value in [3] (setting [18]) amounted to 52.5 ± 13 min; in [3] (setting [19]), 75.2 ± 21.6 min. In addition, the “time within which they left the compartment” value in data set [5] (25 mg/kg intraperitoneally) is 60.6 + 3.9 sec; in data set [5] (50 mg/kg), 77.5 ± 2.7 s. Moreover, the “mice staying on the bar for 3 minutes” value in the data set “Rotating bar test” (25 mg/kg intraperitoneal) is given as “two out of the five”; in the data set “Rotating bar test” (50 mg/kg intraperitoneal), “none”. In data set [6] (single 50 mg/kg oral dose), the “diuresis in water-loaded rats” value was “No treatment caused any signi= ficant change”. Also, the “rate of urine excretion” value in data set [6] (water-loaded rats, daily oral dose of 50 mg/kg for five subsequent days) was “slowed”. Besides, the “excretion rate of intravenously injected bromosulphonphthalein in bile” value in [7] is reported as “No treatment caused any signi= ficant change”. Also, the “number of cases of REM sleep” value in data set [8] is listed as “reduced the number of cases of REM sleep”. Also, the total sleeping time result in data set [8] is “did not modify the total sleeping time”. The “mobility, % of the base-line values” in data set [9] (25 mg/kg intraperitoneally) stood at 31.9%; in [9] (50 mg/kg intraperitoneally), 23.1%. The figures for the effect in rats result in [10] (50 mg/kg by oral route) and in data set [10] (100 mg/kg by oral route) were “did not cause any particular effect” and “mild sedative effect”, respectively. Further, the “duration of the sedative and hypnotic effects” value in data set [10] (rats, acute toxicity doses, animal returned to normal) was “not long lasting”. Besides, the sedative effect result in data set [10] (rats, from the lowest intraperitoneal dose) is “the sedative effect was obtained”; in data set [10] (rats, highest oral dose), “produced a sedative effect”. Further, the “loss of the righting reflex” value in data set [10] (rats, highest oral dose) is “not cause the loss of the righting reflex”; in data set [10] (rats, intraperitoneal, 1 g/kg), “the loss of the righting reflex occurred”. Besides, the LD50 entry in data set [10] (rats, intraperitoneally) is “more than 2 g/kg”; in data set [10] (rats, orally by gastric probe), “more than 2 g/kg”. Further, the animals died in [11] is 5 of the eight. Moreover, the “protection against the lethal effect of strichnine sulfate” value in data set [12] is recorded as “protected all the animals”. Further, the electromyographic tracing entry in data set [13] was “tracing to become flat”. Further, the “Number of animals Dead” value in data set [2] (setting [20]) is listed as 0/8. The “Number of animals with Clonic convulsions” value in data set [2] (setting [20]) was 8 (8). Moreover, in [2] (setting [20]), the “Number of animals with Tonic convulsions” value is listed as 0 (8). In addition, the “sedative effect or other abnormal symptoms” value in data set [14] was “No sedative effect or other abnormal symptoms were observed”. In addition, the arterial blood pressure entry in the data set “Arterial blood pressure” is “No treatment caused any signi= ficant change”. For the same compound, in [15], the “sedation and electromyographic alterations” value was “sedation oc= curred without electromyographic alterations”. For the same compound, the “mean infusion time to cause death” value is 360 + 21.2 seconds in data set [16] (25 mg/kg, controls 260 + 13.4) and 338 ± 24.3 s in data set [16] (50 mg/kg, controls 246 ± 3.1). In addition, the “mean infusion time to cause death (mean + SE)” value in data set [16] (50 mg/kg 15 minutes before infusion, strychnine sulfate 26.66 mg/l at 0.4 ml/min, controls 134 ± 3.2) is 210 ± 6.1 s. Also, the choleresis result in “Choleresis” is “No treatment caused any signi= ficant change”. The “Mean number of crossings (± SE) in 10 minutes” value in [1] (mice, d-amphetamine 5 mg/kg i.p. + 25 mg/kg i.p. given 15 minutes after d-amphetamine) was 836 ± 100.

Source of the values: EP0151964A2, “New derivatives of alpha-amino-gamma-butyrolactone, method for the preparation thereof and pharmaceutical compositions containing them” (priority 1984, dated 1985).
